Assay results taken from PMC3302575 (Biochemistry, 2011).

Assays:
Test in all cases: copurification, absorption spectroscopy of native protein
Format in all cases: binding
[1] = target: A. thaliana CRY2 (AtCRY2) (Arabidopsis thaliana, UniProt Q96524); settings: Sf21 medium with or without F0; pH 7.4
zebrafish CRY4 (ZfCRY4) = target: T1, zebrafish CRY4 (ZfCRY4) (Danio rerio, UniProt Q9I912); settings: Sf21 medium with or without F0; pH 7.5
T1 sequence (Q9I912 1-558): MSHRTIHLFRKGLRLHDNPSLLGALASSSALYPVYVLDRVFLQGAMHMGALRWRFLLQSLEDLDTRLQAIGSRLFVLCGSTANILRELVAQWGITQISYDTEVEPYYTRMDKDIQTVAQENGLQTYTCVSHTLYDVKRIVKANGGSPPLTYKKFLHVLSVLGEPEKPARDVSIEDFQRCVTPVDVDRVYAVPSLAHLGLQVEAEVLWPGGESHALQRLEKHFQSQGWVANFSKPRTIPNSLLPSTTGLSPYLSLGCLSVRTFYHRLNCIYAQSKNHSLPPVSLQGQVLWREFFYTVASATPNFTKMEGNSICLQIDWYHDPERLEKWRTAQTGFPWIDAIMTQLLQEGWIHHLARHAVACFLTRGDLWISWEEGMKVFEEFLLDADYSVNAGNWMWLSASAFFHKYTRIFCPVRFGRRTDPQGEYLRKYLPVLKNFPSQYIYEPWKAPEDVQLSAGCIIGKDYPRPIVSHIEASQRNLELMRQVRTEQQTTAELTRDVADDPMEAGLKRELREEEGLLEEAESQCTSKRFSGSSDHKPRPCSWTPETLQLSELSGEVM

[2] = target: Drosophila cryptochrome (DmCRY) (Drosophila melanogaster, UniProt O77059); settings: Sf21 medium with or without F0; pH 7.5
Drosophila cryptochrome (DmCRY), sequence (O77059 whole entry): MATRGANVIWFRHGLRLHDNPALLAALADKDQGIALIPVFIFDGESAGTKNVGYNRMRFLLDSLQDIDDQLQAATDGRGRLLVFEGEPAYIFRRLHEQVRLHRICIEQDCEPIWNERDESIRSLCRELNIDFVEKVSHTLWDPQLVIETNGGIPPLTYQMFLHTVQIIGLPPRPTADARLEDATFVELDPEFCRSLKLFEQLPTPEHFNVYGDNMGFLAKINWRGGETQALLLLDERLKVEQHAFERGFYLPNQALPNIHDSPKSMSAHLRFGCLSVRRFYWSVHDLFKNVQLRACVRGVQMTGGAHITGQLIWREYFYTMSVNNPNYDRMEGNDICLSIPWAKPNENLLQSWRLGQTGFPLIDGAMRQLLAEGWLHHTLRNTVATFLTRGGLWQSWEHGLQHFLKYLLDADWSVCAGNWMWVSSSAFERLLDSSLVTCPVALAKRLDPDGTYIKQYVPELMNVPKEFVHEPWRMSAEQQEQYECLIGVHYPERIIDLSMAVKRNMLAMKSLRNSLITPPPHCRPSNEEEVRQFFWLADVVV

A. thaliana CRY2 (AtCRY2), sequence (Q96524 whole entry): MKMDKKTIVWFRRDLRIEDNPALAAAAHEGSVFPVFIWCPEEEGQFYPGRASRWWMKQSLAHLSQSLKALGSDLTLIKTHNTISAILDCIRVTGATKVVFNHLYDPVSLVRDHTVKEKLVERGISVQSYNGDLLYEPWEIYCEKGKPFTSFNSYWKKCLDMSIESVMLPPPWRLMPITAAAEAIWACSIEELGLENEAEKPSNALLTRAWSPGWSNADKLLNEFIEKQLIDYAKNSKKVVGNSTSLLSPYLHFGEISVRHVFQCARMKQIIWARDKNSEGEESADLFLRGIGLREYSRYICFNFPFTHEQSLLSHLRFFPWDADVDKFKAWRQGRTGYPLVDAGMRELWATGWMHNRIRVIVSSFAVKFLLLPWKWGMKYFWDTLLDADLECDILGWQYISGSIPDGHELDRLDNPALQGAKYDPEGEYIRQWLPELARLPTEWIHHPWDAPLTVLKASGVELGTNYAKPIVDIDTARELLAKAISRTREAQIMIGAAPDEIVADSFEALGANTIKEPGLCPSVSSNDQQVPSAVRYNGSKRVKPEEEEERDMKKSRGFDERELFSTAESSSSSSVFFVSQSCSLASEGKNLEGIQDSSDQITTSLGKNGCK

In the case of `Cc1cc2nc3c(=O)[nH]c(=O)nc-3n(C[C@H](O)[C@H](O)[C@H](O)COP(=O)(O)OP(=O)(O)OC[C@H]3O[C@@H](n4cnc5c(N)ncnc54)[C@H](O)[C@@H]3O)c2cc1C` [FAD], the “copurification, absorption spectroscopy of native protein” value (from here on “copurification, absorption spectroscopy”) [1] is reported as “both AtCRY2 (A,B) and ZfCRY4 (C,D), expressed with and without F0, contained FAD”, the “copurification, absorption spectroscopy” value (zebrafish CRY4 (ZfCRY4)) is reported as “both AtCRY2 (A,B) and ZfCRY4 (C,D), expressed with and without F0, contained FAD” and the “copurification, absorption spectroscopy” value [2] is reported as “exhibited only the spectra of enzyme-bound FAD (Fig. 4E,F)”.
